Measured values taken from publication PMC6968383, “Design, synthesis, in vitro and in vivo evaluation of benzylpiperidine-linked 1,3-dimethylbenzimidazolinones as cholinesterase inhibitors against Alzheimer’s disease” (Journal of Enzyme Inhibition and Medicinal Chemistry, 2019).
Read-outs that look alike come from different tables or passages of the source.

How the values were obtained:
[1] = biological target: T1, BChE (EC 3.1.1.8) from horse serum (Equus caballus, UniProt P81908); assay: biochemical; conditions: eqBChE; mean ± SEM of triplicate independent experiments; read-out: BChE IC50
T1 construct: horse serum BChE (eqBChE, Sigma-Aldrich); purchased Sigma-Aldrich; host or cells: horse serum
Description: (§1) The data were expressed as IC50 values (Table 1).
(§2) The inhibitory activities of the target compounds towards AChE (from Electrophorus electricus (electric eeAChE, Sigma-Aldrich) and horse serum BChE (eqBChE, Sigma-Aldrich) or human AChE – huAChE; human BuChE – huBuChE (huAChE, huBuChE, Sigma-Aldrich) were measured by Ellman’s method. In 96-well plates, a mixture of phosphate buffer (0.1 M, pH 8.0, […]), 5,5′-dithiobis-2-nitrobenzoic acid (DTNB, 60 µL), acetylcholinestrase or butyrylcholinesterase (20 µL, 5 IU/mL) and different concentration of the compound solution (30 µL) was pre-incubated for 5 min followed by the addition of the substrate (acetylthiocholine iodide or butyrylthiocholine iodide, 20 µL). […] The measurement of each concentration for each compound was detected in triplicate. GraphPad Prism 6.0 (GraphPad Software, Inc., La Jolla, CA) was used for data processing. The inhibition curve was fitted by plotting percentage enzyme activity (100% for the reference) versus the logarithm of the concentration of tested compound. The half-maximal inhibitory concentration (IC50) values were calculated according to the inhibition curve and the data were shown in the layout of mean ± SEM by GraphPad Prism 6.0.

[2] = biological target: T2, AChE (EC 3.1.1.7) from electric eel (Electrophorus electricus, UniProt O42275); assay: biochemical; type: biochemical; conditions: for SI (selectivity index = AChE IC50/BChE IC50): eeAChE IC50 / eqBChE IC50; for IC50: eeAChE, mean ± SEM of triplicate independent experiments, read-out: AChE IC50
T2 construct: purchased Sigma-Aldrich
Description: as §1, §2

liver = assay: Liver histopathological study (HE staining); conditions: 36 h after administration, compared to control group
Excerpt: Figure 7. […] HE staining, original magnification ×200.

[3] = test system: scopolamine-induced cognition impairment in ICR mice; assay: Morris water maze test, scopolamine-induced cognition impairment; type: in vivo; conditions: oral 15 mg kg−1, scopolamine 1 mg kg−1 ip, probe trial on sixth day, mean ± SEM n = 6
Description: The test included 5 days of learning and memory training and a probe trial on the sixth day.
Scopolamine hydrobromide was supplied by Aladdin Reagents (H1507073, Shanghai, China).
Cognitive function was evaluated by the Morris water maze analysis-management system (SMART 3.0, Panlab, Madrid, Spain), according to the method previously described[30].The maze was placed in a lit room with visual cues at 25 °C. An escape platform (10 cm diameter) was located in the centre of one quadrant of the circular pool (120 cm diameter, 60 cm height) with a depth of 40 cm water. The behavioural study of each mouse included 5 days of learning and memory training and a probe trial on day 6. The animal starting positions faced to the pool wall, and were pseudorandomised for each trial. For the cognitive evaluation, each mouse was individually evaluated on both visible-platform (days 1–2) and hidden-platform (days 3–5) versions of the water maze. All mice received nonspatial pretraining during the first two training days, which prepared them for the subsequent spatial learning test. During the two days, mice were trained to find the platform that was labelled by a small flag (5 cm tall). The hidden platform version was used to determine the retention of memory to find the platform. During the hidden-platform training trials, the escape platform was placed 1 cm below the surface of the water. On each day, the animal was subjected to two trials, each of which lasted for 90 s. The time for the mouse to find the platform (a successful escape) was recorded. […] On the last day (day 6), the platform was removed from its location and the animals were given a probe trial in which they had 90 s to search for the platform. The time taken to reach the missing platform and the number of times the animals crossed the platform location were recorded.
Data for the time of escape latency, the trajectory travelled, and the number of platform location crossings were recorded by SMART 3.0, Panlab, Madrid, Spain and processed by GraphPad Prism 6.0.

[4] = type: in vivo; conditions: serum, tacrine 30 mg kg−1, mean ± SEM n = 6
Description: . Heparinised serum was obtained after the treatment of 15b and 15j at 8, 22, and 36 h, respectively. The serum levels of ALT and AST are directly proportional to the severity of the liver damage. […]

T2 sequence (O42275 24-633): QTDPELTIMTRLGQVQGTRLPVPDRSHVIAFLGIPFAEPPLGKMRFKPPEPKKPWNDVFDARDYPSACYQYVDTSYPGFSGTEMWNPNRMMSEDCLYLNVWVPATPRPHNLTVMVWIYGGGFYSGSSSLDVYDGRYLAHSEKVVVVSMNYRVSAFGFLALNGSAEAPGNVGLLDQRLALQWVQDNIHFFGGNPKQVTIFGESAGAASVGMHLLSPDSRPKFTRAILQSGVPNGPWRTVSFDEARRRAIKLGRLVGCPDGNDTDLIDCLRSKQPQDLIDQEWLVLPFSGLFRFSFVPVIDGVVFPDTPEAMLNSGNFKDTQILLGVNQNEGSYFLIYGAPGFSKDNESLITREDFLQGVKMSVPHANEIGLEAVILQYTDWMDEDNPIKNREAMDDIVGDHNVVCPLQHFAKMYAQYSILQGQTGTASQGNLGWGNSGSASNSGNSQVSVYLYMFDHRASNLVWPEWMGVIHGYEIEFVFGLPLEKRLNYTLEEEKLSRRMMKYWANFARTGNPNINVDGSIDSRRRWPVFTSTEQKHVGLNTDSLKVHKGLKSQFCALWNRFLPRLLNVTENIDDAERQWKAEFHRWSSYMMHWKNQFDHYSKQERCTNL
T1 sequence (P81908 whole entry): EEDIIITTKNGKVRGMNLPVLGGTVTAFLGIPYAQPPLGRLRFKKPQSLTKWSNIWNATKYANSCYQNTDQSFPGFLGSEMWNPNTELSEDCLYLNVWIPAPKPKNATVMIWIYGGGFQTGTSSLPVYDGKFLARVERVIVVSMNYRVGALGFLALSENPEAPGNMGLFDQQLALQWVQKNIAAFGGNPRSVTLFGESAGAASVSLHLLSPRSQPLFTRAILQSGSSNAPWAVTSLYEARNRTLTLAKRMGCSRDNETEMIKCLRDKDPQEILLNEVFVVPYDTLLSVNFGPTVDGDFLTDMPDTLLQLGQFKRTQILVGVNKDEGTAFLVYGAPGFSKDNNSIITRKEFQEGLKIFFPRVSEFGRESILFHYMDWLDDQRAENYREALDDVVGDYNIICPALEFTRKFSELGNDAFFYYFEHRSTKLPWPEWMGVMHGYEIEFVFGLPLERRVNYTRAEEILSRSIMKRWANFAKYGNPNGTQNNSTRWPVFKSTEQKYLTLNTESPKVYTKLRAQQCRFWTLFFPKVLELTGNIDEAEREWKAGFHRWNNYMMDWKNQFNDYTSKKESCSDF

## Cn1c(=O)n(C)c2cc(S(=O)(=O)NCC3CCN(Cc4cccc(Cl)c4)CC3)ccc21 [Compound 15g, N-((1–(3-chlorobenzyl)piperidin-4-yl)methyl)-1,3-dimethyl-2-oxo-2,3-dihydro-1H-benzo[d]imidazole-5-sulphonamide]
[1]
  IC50: 1010 ± 460 nM
[2]
  SI (selectivity index = AChE IC50/BChE IC50): 0.15
  IC50: 150 ± 20 nM

## Cn1c(=O)n(C)c2cc(S(=O)(=O)NCC3CCN(Cc4ccc(Cl)cc4)CC3)ccc21 [Compound 15h, N-((1–(4-chlorobenzyl)piperidin-4-yl)methyl)-1,3-dimethyl-2-oxo-2,3-dihydro-1H-benzo[d]imidazole-5-sulphonamide]
[1]
  IC50: 2230 ± 810 nM
[2]
  SI (selectivity index = AChE IC50/BChE IC50): 0.87
  IC50: 1950 ± 280 nM

## Cn1c(=O)n(C)c2cc(S(=O)(=O)NCC3CCN(Cc4ccccc4Br)CC3)ccc21 [Compound 15i, N-((1–(2-bromobenzyl)piperidin-4-yl)methyl)-1,3-dimethyl-2-oxo-2,3-dihydro-1H-benzo[d]imidazole-5-sulphonamide]
[1]
  IC50: 220 ± 40 nM
[2]
  IC50: 420 ± 60 nM

## Nc1c2c(nc3ccccc13)CCCC2 [Tacrine]
liver
  morphologic changes in liver: did not result in remarkable morphologic changes in liver
[3]
  Distance to target: 310.01 ± 9.54 cm
  Latency to target: 12.06 ± 0.37 s
[4]; 8 h after treatment
  ALT: 32.7 ± 1.7 U/L
  AST: 95.1 ± 9.5 U/L
[4]; 22 h after treatment
  ALT: 31.7 ± 1.2 U/L
  AST: 108.9 ± 6.1 U/L
[4]; 36 h after treatment
  ALT: 35.8 ± 6.7 U/L
  AST: 110.4 ± 9.4 U/L
